In the NIST ThermoML archive (doi:10.1016/j.tca.2006.02.029):

Assay: excess molar enthalpy (molar enthalpy of mixing); xn = mol fraction of the nth substance listed
Conditions: 1065 K, 101 kPa, Liquid, Drop calorimetry

[Fe] [iron] + [Sb]
Conditions	excess molar enthalpy [kcal/mol]
x1 = 0.0023	0.0117
x1 = 0.0025	0.00933
x1 = 0.0049	0.0176
x1 = 0.0055	0.0233
x1 = 0.0075	0.0279
x1 = 0.008	0.0317
x1 = 0.0102	0.0359
x1 = 0.0114	0.0427
x1 = 0.0129	0.0455
x1 = 0.0135	0.0475
x1 = 0.0144	0.0535
x1 = 0.0148	0.0479
x1 = 0.0157	0.0538
x1 = 0.0187	0.0674
x1 = 0.0188	0.0624
x1 = 0.0232	0.079
x1 = 0.0271	0.0916
x1 = 0.029	0.0888
x1 = 0.0292	0.0913
x1 = 0.0316	0.105
x1 = 0.0359	0.118
x1 = 0.0407	0.131
x1 = 0.0442	0.131
x1 = 0.0445	0.128
x1 = 0.0455	0.145
x1 = 0.0591	0.165
x1 = 0.0609	0.168
x1 = 0.0762	0.201
x1 = 0.0765	0.204
x1 = 0.0942	0.229
x1 = 0.096	0.243
x1 = 0.1139	0.259
x1 = 0.1167	0.283
x1 = 0.1336	0.313
x1 = 0.1353	0.299
